Assay [1] relates to Spodoptera exigua. Nature of the assay: Insecticidal activity against early instar Spodoptera exigua assessed as mortality at 500 ug/g after 7 days by artificial diet bioassay relative to control. It is filed as functional.
Assay [2] relates to Spodoptera exigua. Nature of the assay: Insecticidal activity against early instar Spodoptera exigua assessed as larval weight at 500 ug/g after 7 days by artificial diet bioassay. Format: functional.

Drawing on ChEMBL document CHEMBL1150952, “Isolation, identification, and biological activity of isopersin, a new compound from avocado idioblast oil cells” (1998), this text covers Activity for 2 compounds.

As for `CCCCC/C=C\C/C=C\CCCCCCCC(=O)C[C@@H](O)COC(C)=O`, the Activity in the assay with Spodoptera exigua [1] is on record as 80%.

As for `CCCCC/C=C\C/C=C\CCCCCCCC(=O)CC(CO)OC(C)=O` (stereo not drawn) [ISOPERSIN], the Activity in the assay with Spodoptera exigua [2] is given as 26.45 mg; with Spodoptera exigua [1] it was 12%.
